Measurements: patent US9586951B2 (FUJIFILM Corporation, priority 2013, dated 2017)

Experiments:
[1] = molecular target: T1, ATM (Homo sapiens, UniProt Q13315); test: ATM inhibition test (phosphorylation of Chk2 generated by ionizing radiation, AlphaScreen SureFire); format: cell-based; conditions: phosphorylated Chk2 in NCI-H460 cells, ionizing radiation 8Gy, 1 hour after test compound treatment; read-out: ATM inhibitory activity
T1 construct: detecting phosphorylation of Chk2 in a human non-small cell lung cancer cell line NCI-H460 (ATCC company); host or cells: NCI-H460 human non-small cell lung cancer cells
T1 sequence (Q13315 whole entry): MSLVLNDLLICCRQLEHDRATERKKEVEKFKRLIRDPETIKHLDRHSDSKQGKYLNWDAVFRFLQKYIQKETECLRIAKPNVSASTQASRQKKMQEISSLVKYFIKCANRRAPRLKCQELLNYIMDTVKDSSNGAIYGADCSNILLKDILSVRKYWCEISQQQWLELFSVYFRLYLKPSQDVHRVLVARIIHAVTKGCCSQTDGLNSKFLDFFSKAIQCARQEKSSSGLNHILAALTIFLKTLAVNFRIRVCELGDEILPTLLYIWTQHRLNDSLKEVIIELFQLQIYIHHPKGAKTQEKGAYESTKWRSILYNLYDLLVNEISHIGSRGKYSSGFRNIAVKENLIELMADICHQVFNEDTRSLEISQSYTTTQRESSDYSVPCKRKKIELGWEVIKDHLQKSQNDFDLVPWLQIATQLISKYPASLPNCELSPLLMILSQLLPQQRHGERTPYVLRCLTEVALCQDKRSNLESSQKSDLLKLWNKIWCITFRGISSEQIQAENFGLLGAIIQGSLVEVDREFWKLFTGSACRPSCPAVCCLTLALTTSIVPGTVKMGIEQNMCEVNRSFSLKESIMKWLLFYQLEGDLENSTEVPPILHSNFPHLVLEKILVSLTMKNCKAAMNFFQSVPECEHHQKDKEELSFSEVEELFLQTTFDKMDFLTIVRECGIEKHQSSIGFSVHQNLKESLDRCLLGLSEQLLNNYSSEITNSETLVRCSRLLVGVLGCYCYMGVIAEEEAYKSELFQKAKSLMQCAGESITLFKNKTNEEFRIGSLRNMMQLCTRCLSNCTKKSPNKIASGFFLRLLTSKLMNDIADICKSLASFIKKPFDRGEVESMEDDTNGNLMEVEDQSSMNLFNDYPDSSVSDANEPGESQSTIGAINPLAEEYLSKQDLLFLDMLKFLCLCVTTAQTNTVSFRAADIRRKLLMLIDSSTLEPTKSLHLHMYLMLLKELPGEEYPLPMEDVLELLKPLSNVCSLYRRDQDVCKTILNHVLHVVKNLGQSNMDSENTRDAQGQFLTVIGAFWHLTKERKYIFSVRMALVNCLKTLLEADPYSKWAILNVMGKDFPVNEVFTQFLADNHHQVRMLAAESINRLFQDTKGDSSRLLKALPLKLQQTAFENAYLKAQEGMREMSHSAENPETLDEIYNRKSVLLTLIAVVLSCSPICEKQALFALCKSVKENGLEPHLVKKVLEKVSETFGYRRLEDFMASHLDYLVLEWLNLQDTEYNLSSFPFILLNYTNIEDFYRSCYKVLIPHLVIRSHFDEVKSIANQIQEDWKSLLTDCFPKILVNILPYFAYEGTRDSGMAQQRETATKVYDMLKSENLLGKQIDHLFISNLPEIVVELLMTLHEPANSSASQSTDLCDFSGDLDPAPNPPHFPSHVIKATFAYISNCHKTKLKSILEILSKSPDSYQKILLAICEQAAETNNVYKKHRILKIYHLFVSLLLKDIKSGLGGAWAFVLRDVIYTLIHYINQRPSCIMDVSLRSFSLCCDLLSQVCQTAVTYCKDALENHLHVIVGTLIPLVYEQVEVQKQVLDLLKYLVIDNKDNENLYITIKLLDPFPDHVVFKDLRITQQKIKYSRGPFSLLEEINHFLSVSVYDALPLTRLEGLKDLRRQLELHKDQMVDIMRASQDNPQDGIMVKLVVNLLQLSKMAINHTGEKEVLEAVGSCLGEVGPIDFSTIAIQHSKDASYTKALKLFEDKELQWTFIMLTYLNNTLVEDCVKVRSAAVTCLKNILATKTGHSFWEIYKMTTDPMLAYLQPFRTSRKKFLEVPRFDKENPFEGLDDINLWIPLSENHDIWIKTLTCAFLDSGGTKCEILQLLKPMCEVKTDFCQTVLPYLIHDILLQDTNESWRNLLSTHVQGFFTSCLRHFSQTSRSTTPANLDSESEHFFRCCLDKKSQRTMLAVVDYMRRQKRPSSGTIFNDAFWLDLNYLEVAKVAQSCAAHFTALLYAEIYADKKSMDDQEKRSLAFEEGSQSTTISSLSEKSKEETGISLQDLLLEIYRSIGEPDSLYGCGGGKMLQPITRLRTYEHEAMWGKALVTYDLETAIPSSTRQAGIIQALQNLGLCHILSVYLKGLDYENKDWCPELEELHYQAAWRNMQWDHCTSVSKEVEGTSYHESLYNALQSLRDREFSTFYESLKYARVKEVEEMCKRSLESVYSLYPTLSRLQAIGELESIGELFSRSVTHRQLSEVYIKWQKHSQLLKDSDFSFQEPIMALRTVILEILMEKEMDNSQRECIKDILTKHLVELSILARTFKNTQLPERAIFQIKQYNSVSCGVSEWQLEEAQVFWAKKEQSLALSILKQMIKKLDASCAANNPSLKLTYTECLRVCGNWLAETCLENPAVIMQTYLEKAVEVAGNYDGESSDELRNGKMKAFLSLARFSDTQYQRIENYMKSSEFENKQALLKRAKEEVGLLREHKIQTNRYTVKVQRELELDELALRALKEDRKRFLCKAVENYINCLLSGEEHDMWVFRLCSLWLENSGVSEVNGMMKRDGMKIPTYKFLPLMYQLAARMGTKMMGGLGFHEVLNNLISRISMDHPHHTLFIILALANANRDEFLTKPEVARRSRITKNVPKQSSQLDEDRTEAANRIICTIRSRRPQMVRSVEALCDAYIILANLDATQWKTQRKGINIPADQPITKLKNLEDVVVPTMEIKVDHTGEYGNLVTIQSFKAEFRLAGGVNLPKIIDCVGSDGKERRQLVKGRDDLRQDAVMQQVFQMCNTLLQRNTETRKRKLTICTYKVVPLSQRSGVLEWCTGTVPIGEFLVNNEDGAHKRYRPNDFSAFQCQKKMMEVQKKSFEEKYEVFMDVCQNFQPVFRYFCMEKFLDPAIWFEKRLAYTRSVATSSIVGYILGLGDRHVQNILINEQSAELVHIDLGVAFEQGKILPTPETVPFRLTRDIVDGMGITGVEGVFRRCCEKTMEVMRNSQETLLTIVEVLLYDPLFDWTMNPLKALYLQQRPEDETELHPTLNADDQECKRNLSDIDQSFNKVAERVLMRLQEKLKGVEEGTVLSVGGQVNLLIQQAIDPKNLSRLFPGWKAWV
Outline: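 In NCI-H460 cells, radiation-triggered Chk2 phosphorylation (8Gy, 1 h) is detected by AlphaScreen SureFire following 1 h compound exposure.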

[2] = tested on: human non-small cell lung cancer cell line NCI-H460; test: Cell proliferation inhibition test by sensitivity-enhancing to ionizing radiation (Cell Titer Glo); format: cell-based; conditions: Homo sapiens, NCI-H460, 120 h, concentration in which SER became 2; NCI-H460 cells, ionizing radiation 2 Gy, cultured 120 hour
Outline: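 Cells seeded at 2×10^3 cells/mL in RPMI-1640 with 10% FBS; after 24 h, compound added (0.1% DMSO), and 30 min later half the plates irradiated at 2 Gy. After 120 hour at 37° C, viability by Cell Titer Glo luminescence; SER2 is the concentration giving SER of 2 by sigmoidal fit.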

Structure (SMILES)	IC50 [1] [nM]	SER2 (concentration at which the radiation sensitivity-enhancement ratio reaches 2) [2] [nM]
CN1CCCC(Nc2ccc3c(c2)Sc2cccc(-c4cc(N5CCOCC5)cc(=O)[nH]4)c2S3)C1 (stereo not drawn) [Example 1-31-2, 6-(7-((1-Methylpiperidin-3-yl)amino)thianthren-1-yl)-4-morpholinopyridin-2(1H)-one]	< 100	100 to 500
CC(CN1CCOCC1)Nc1ccc2c(c1)Sc1cccc(-c3cc(N4CCOCC4)cc(=O)[nH]3)c1S2 (racemic) [Example 1-13-2-1, 4-Morpholino-6-(7-((1-morpholinopropan-2-yl)amino)thianthren-1-yl)pyridin-2(1H)-one]	< 100	100 to 500
O=c1cc(N2CCOCC2)cc(-c2cccc3c2Oc2ccc(NCc4cncc(C5CCCC5)c4)cc2S3)[nH]1 [Example 4-8-15, 6-(8-(((5-Cyclopentylpyridin-3-yl)methyl)amino)phenoxathiin-4-yl)-4-morpholino pyridin-2(1H)-one]	< 100	500 to 2000
Cc1cccc(C(CCN2CCOCC2)Nc2ccc3c(c2)Sc2cccc(-c4cc(N5CCOCC5)cc(=O)[nH]4)c2S3)n1 (stereo not drawn) [Example 1-34-4]	< 100	< 100
Cc1cnc(C(CF)Nc2ccc3c(c2)Sc2cccc(-c4cc(N5CCOCC5)cc(=O)[nH]4)c2S3)nc1 (stereo not drawn) [Example 1-12-93, 6-(7-((2-Fluoro-1-(5-methylpyrimidin-2-yl)ethyl)amino)thianthren-1-yl)-4-morpholino pyridin-2(1H)-one]	< 100	100 to 500
COc1ncc(CNc2ccc3c(c2)Sc2cccc(-c4cc(N5CCOCC5)cc(=O)[nH]4)c2O3)cn1 [Example 4-4-4, 6-(8-(((2-Methoxypyrimidin-5-yl)methyl)amino)phenoxathiin-4-yl)-4-morpholino pyridin-2 (1H)-one]	< 100	500 to 2000
COCC(CN1CC2CCC(C1)O2)Nc1ccc2c(c1)Sc1cccc(-c3cc(N4CCOCC4)cc(=O)[nH]3)c1S2 [Example 1-46-10, 6-(7-(((2S)-1-(8-Oxa-3-azabicyclo[3.2. l]octan-3-yl)-3-methoxypropan-2-yl)amino)thianthren-1-yl)-4-morpholino pyridin-2(1H)-one]	< 100	100 to 500
CC(CN1CCN(C)CC1)Nc1ccc2c(c1)Sc1cccc(-c3cc(N4CCOCC4)cc(=O)[nH]3)c1S2 (single isomer, unassigned) [Example 1-13-3-2, 6-(7-((1-(4-methylpiperazin-1-yl)propan-2-yl)amino)thianthren-1-yl)-4-morpholinopyridin-2(1H)-one]	< 100	100 to 500
COc1cc(CNc2ccc3c(c2)Sc2cccc(-c4cc(N5CCOCC5)cc(=O)[nH]4)c2O3)cnc1OC [Example 4-4-12, 6-(8-(((5,6-Dimethoxypyridin-3-yl)methyl)amino)phenoxathiin-4-yl)-4-morpholino pyridin-2(1H)-one]	< 100	100 to 500
Cc1cncc(C(C)Nc2ccc3c(c2)Sc2cccc(-c4cc(N5CCOCC5)cc(=O)[nH]4)c2S3)n1 (stereo not drawn) [Example 1-12-73, 6-(7-((1-(6-Methylpyrazin-2-yl)ethyl)amino)thianthren-1-yl)-4-morpholino pyridin-2 (1H)-one]	< 100	< 100
COc1cncc(CNc2ccc3c(c2)Sc2cccc(-c4cc(N5CCOCC5)cc(=O)[nH]4)c2S3)c1 [Example 1-44-1, 6-(7-(((5-methoxypyridin-3-yl)methyl)amino)thianthren-1-yl)-4-morpholinopyridin-2(1H)-one]	< 100	500 to 2000

Second part, led by results:

IC50 [1] [nM]	Structure (SMILES)	SER2 (concentration at which the radiation sensitivity-enhancement ratio reaches 2) [2] [nM]
< 100	Cc1ccnc(CNc2ccc3c(c2)Cc2ccc(F)c(-c4cc(N5CCOCC5)cc(=O)[nH]4)c2O3)c1 [Example 2-46-5, 6-(3-Fluoro-7-(((4-methylpyridin-2-yl)methyl)amino)-9H-xanthen-4-yl)-4-morpholinopyridin-2(1H)-one]	100 to 500
< 100	O=c1cc(N2CCOCC2)cc(-c2cccc3c2Oc2ccc(NCc4cncc(C5CC5)c4)cc2C3)[nH]1 [Example 2-2-50, 6-(7-(((5-Cyclopropylpyridin-3-yl)methyl)amino)-9H-xanthen-4-yl)-4-morpholino pyridin-2 (1H)-one]	100 to 500
< 100	Cc1ccnc(C(C)Nc2ccc3c(c2)Sc2cccc(-c4cc(N5CCOCC5)cc(=O)[nH]4)c2S3)c1 (single isomer, unassigned) [Example 1-12-135-1, 6-(7-((1-(4-methylpyridin-2-yl)ethyl)amino)thianthren-1-yl)-4-morpholinopyridin-2(1H)-one]	< 100
< 100	COc1ccnc(C(C)Nc2ccc3c(c2)Cc2cccc(-c4cc(N5CCOCC5)cc(=O)[nH]4)c2O3)c1 (stereo not drawn) [Example 2-14-20, 6-(7-((1-(4-Methoxypyridin-2-yl)ethyl)amino)-9H-xanthen-4-yl)-4-morpholino pyridin-2(1H)-one]	< 100
< 100	O=c1cc(N2CCOCC2)cc(-c2cccc3c2Oc2ccc(NCc4cncc(C(F)(F)F)c4)cc2C3)[nH]1 [Example 2-13-4, 4-Morpholino-6-(7-(((5-(trifluoromethyl)pyridin-3-yl)methyl)amino)-9H-xanthen-4-yl)pyridin-2(1H)-one]	100 to 500
< 100	Cc1cc(CNc2ccc3c(c2)Cc2cccc(-c4cc(N5CCOCC5)cc(=O)[nH]4)c2O3)ccn1 [Example 2-2-20, 6-(7-(((2-Methylpyridin-4-yl)methyl)amino)-9H-xanthen-4-yl)-4-morpholino pyridin-2(1H)-one]	500 to 2000
100 to 500	CNc1ncc(CNc2ccc3c(c2)Cc2cccc(-c4cc(N5CCOCC5)cc(=O)[nH]4)c2O3)cn1 [Example 2-2-16, 6-(7-(((2-(Methylamino)pyrimidin-5-yl)methyl)amino)-9H-xanthen-4-yl)-4-morpholino pyridin-2(1H)-one]	100 to 500
< 100	N#Cc1cncc(CNc2ccc3c(c2)Cc2cccc(-c4cc(N5CCOCC5)cc(=O)[nH]4)c2O3)c1 [Example 2-14-7, 5-(((5-(4-Morpholino-6-oxo-1,6-dihydropyridin-2-yl)-9H-xanthen-2-yl)amino)methyl)nicotinonitrile]	500 to 2000
< 100	CC(Nc1ccc2c(c1)Cc1cccc(-c3cc(N4CCOCC4)cc(=O)[nH]3)c1O2)c1cccc(F)n1 (stereo not drawn) [Example 2-14-21, 6-(7-((1-(6-Fluoropyridin-2-yl)ethyl)amino)-9H-xanthen-4-yl)-4-morpholino pyridin-2(1H)-one]	100 to 500
< 100	O=c1cc(N2CCOCC2)cc(-c2cccc3c2Oc2ccc(NCc4ccnc(F)c4)cc2C3)[nH]1 [Example 2-21-2, 6-(7-(((2-Fluoropyridin-4-yl)methyl)amino)-9H-xanthen-4-yl)-4-morpholinopyridin-2 (1H)-one]	100 to 500
